Results as given in patent publication US12220395B2, “Intermittent endurance capacity improving agent or blood pH elevating agent” (AJINOMOTO CO., INC., priority 2018, dated 2025).

Columns and labels:
C57BL/6J male mice [1] = experiment: increase in mouse plasma pH by oral administration; settings: for blood (plasma) pH increasing effect, time course: 7- to 9-week-old mice, aspartic acid 1 g/kg, blood sampled 30, 60, 120 min after administration, i-STAT, FIGS. 2 and 3
C57BL/6J male mice [2] = experiment: mouse YO-YO test (intermittent endurance capacity, treadmill); format: in vivo; settings: 6-week-old mice; oral aqueous solution 1 to 2 g/kg; YO-YO test from 30 min after administration; compared to water (negative control); FIG. 1
Method: After ingesting a test substance into 6-week-old C57BL/6J male mice, a mouse YO-YO test was conducted to evaluate an intermittent endurance capacity improving effect of the test substance using the intermittent endurance capacity of each individual as an index. As the test substance, 20 kinds of amino acids (or salts thereof) were used.
Preliminary running was performed on the mice one week before the main test. […] Unable to run was judged when the mouse could not keep up with the running speed. […] Grouping was performed such that the number of running sets and body weight of each individual obtained in the preliminary running were about the same for each group.
In the week following the preliminary running, the mice evaluated for the intermittent endurance capacity were orally administered with an aqueous solution containing a test substance in a dose of 1 to 2 g/kg mouse body weight, or water (negative control) at 20 mL/kg mouse body weight. […] From 30 min after the oral administration, the above-mentioned YO-YO test was performed to evaluate the effect of the test substance on the number of runnable sets of each individual. […]

## N[C@@H](CC(=O)O)C(=O)O [aspartic acid]
C57BL/6J male mice [1]
  blood (plasma) pH increasing effect, time course: affords an effect of increasing blood pH even after 0.5 hr to 2 hr from the administration
C57BL/6J male mice [2]
  increase in the number of runnable sets (intermittent endurance capacity improving effect): significantly increased the number of runnable sets

## N[C@@H](Cc1ccc(O)cc1)C(=O)O [tyrosine]
C57BL/6J male mice [2]
  increase in the number of runnable sets (intermittent endurance capacity improving effect): significantly increased the number of runnable sets

## O=C([O-])O.[Na+] [sodium hydrogen carbonate]
C57BL/6J male mice [1]
  blood (plasma) pH increasing effect, time course: the pH increasing effect disappeared rapidly thereafter
C57BL/6J male mice [1]; plasma pH, mice, FIG. 2
  time of peak of the pH increasing effect: 0.5 hr
